Tests used:
aortic rings = test: Cold ischaemic storage of aortic rings in UW solutions followed by myograph reoxygenation; set-up: species or system Wistar rats; conditions: for endothelium-dependent relaxation (ACh) vs GSH-free UW: GSH 3 mM, GSHMEE 3 mM
Protocol: Animal care and experimental protocols were performed in accordance with the Home Office Guidance in the Operation of Animals (Scientific Procedures) Act 1986, UK. Adult male Wistar rats weighing 300-450 g were kept in a temperature-controlled environment with a 12 h light-dark cycle, and allowed free access to water and standard diet. University of Wisconsin solution was prepared according to standard protocol: Potassium lactobionate 100 mM, KH2PO4 25 mM, MgSO4 5 mM, raffinose 30 mM, adenosine 5 mM, allopurinol 1 mM, dexamethasone 16 mg/L, insulin 40 U/L, penicillin 200 000 U/L and EDTA 0.03 mM at pH 7.4. The EDTA was added in order to help protect GSNO against metal-ion catalysed decomposition. The solution was bubbled with argon gas for 1 hour to mimic hypoxia. Oxygen levels were confirmed using an oxygen electrode (Apollo 4000 integrated free radical analyser, World Precision Instruments Inc. USA). Bubbling for 30 minutes depleted >90% of oxygen in solution. Following cervical dislocation, laparotomy was performed and the aorta dissected with clearance of periaortic fat and connective tissue. Vessels were divided into 3-5 mm aortic rings with care taken not to stretch or damage the vessels. Aortic rings were subjected to cold ischaemic storage (4° C. for 1 or 48 hours) in sealed containers filled with hypoxic control (UW without GSH) solution; UW with GSH (3 mM); UW with glutathione monoethyl ester ([…]; 3 mM) or UW with S-nitrosated glutathione (GSNO; 100 μM). After storage, aortic rings were suspended between two stainless steel supports in a myograph (700MO, Danish Myo, Aarhus, Denmark) and reoxygenated in 10 ml organ baths containing Krebs buffer solution (mM): […] Resting tensions of 1.5 g were applied to all rings prior to equilibration (30 minutes). Following equilibration, all vessels were exposed to Krebs buffer containing a high concentration of potassium (60 mM) three times to assess tissue viability and to provide a reference maximum contraction for subsequent data analysis. Each response was followed by a washout. A concentration-response curve to the α1 adrenoceptor agonist, L-phenylephrine (PE; 10^-8M-3×10^-5M) was then constructed and used to identify the concentration of PE required to generate 80% maximal contraction (EC80) for subsequent vasodilator studies. Upon establishing stable contractions, cumulative concentration-response curves to the endothelium-dependent vasodilator, acetylcholine (ACh; 10^-9-10^-5M) were constructed in all preparations. Only one concentration-response curve was obtained per tissue. A further submaximal PE contraction was elicited and the NO synthase inhibitor, N^ω-nitro-L-arginine methyl ester (L-NAME) was applied to inhibit endogenous NO production and to determine the vasodilatory effect of endothelium-derived NO under basal (unstimulated) conditions. Subsequently, the NO scavenger, carboxy-PTIO (cPTIO; 1 mM), was added in order to establish the contribution of NOS-independent NO to any vasodilator tone existing under basal conditions.

[1] = tested on: Human umbilical vein endothelial cells (HUVEC); test: Endothelial cell viability assay (trypan blue exclusion); conditions: for HUVEC cell viability vs control: 37° C., absence of any oxidants (unstressed); for HUVEC cell viability vs control / HUVEC cell survival in the presence of menadione: supplemented UW
Protocol: Human umbilical vein endothelial cells (HUVEC) were seeded in 162 ml flasks (Dulbecco's modified Eagle's medium 37° C., 5% CO2). Cells were cultured to confluence and transferred to 6-well culture dishes containing phosphate buffered saline (control), UW without GSH, UW+GSH (3 mM), UW+GSH-MEE (3 mM) or UW+GSNO for 24 h (37° C.) in the absence of any oxidants or in the presence of a hydroxyl radical generator (menadione; 10 μM), the superoxide generating system, xanthine+xanthine oxidase (5 μM; 1 mU/ml) or the oxidant species H2O2 (100 μM). Cell viability after 24 h incubations was assessed using a standard trypan blue exclusion assay.

[2] = Decomposition of GSNO in storage, absorbance at 339 nm; type: physicochemical
Protocol: The freezing point for DMSO is ˜15° C., so these samples were effectively “frozen” for the duration of the experiment, perhaps contributing to the stability of GSNO under these conditions. The apparent depression of absorbance at time zero in the DMSO sample is most likely attributable to incomplete dissolution of the material when the first measurement was taken.

[3] = after 48 h cold ischaemia, GSNO 100 μM

| SMILES | endothelium-dependent relaxation (ACh) vs GSH-free UW (aortic rings; [3]) | HUVEC cell viability vs control ([1]; 24 h) | HUVEC cell survival in the presence of menadione ([1]; 24 h, menadione 10 μM) | contraction on addition of L-NAME to precontracted tissues vs standard UW (aortic rings; after 48 h cold ischaemia) | further results |
| --- | --- | --- | --- | --- | --- |
| N[C@@H](CCC(=O)N[C@@H](CS)C(=O)NCC(=O)O)C(=O)O [GSH, Glutathione] | significantly poorer endothelium-dependent relaxation | significantly reduced viability | significantly enhanced cell survival |  |  |
| CCOC(=O)CNC(=O)[C@H](CS)NC(=O)CC[C@H](N)C(=O)O [GSH-MEE, glutathione monoethyl ester] | no significant difference | significantly reduced viability | significantly enhanced cell survival | significantly lesser contraction |  |
| N[C@@H](CCC(=O)N[C@@H](CSN=O)C(=O)NCC(=O)O)C(=O)O [GSNO, S-nitrosoglutathione] | no significant difference | not significantly different from control | ineffective | significantly lesser contraction | contraction on further addition of NO scavenger cPTIO vs standard UW (aortic rings; after 1 h cold ischaemia): significantly greater contraction; contraction on further addition of cPTIO vs standard UW (aortic rings; after 48 h cold ischaemia): significantly greater contraction; maximal contractions to PE vs GSH-free UW (aortic rings; [3]): significantly depressed maximal contractions; half-life at 100 µM ([2]; modified UW solution, modified UW (containing EDTA but excluding GSH), refrigerator in the dark at 4-6° C.): ~144 h; decomposition of GSNO in 100% DMSO ([2]; same time period, dark, 4-6° C., samples effectively frozen): did not show any significant decomposition |
| OO [H2O2] |  |  |  |  | effect of oxidant on HUVEC cell survival ([1]; 24 h, X/XO 5 μM, 1 mU/ml, H2O2 100 μM): substantial cell death |
| CC1=CC(=O)c2ccccc2C1=O [menadione] |  |  |  |  | cells surviving oxidant treatment under control conditions ([1]; 24 hr treatment, menadione 10 μM): less than 5% |
